Measured values: PMC4694998, “Suppression of β-catenin/TCF transcriptional activity and colon tumor cell growth by dual inhibition of PDE5 and 10” (Oncotarget, 2015)

Tests used:
[1] = target: T1, purified ovine COX-2 (Ovis aries, UniProt P79208); assay: COX-2 colorimetric assay; format: biochemical
T1 construct: purchased Cayman
T1 sequence (P79208 17-603): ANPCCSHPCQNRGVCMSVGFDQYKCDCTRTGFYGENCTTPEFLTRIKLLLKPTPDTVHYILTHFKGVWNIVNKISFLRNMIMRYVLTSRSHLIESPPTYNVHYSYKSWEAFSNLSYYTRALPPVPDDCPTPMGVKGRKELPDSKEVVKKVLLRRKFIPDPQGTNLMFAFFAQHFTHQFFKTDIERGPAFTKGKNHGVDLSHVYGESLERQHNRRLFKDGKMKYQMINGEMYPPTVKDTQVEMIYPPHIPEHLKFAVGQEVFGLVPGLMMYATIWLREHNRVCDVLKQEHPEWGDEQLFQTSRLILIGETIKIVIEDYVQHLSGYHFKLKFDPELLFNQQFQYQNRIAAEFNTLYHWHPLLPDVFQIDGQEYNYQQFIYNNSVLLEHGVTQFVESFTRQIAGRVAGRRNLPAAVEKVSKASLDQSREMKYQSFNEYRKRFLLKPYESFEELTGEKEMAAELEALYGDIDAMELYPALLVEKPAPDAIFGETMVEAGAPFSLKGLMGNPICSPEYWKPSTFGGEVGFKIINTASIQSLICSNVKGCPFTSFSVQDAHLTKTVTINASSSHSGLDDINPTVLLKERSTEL
Procedure: COX-1 and COX-2 activities were measured using purified ovine COX-1 and COX-2 with colorimetric assay kits obtained from Cayman as previously reported. The activities of COX-1 and COX-2 were measured after the addition of arachidonic acid and incubation at 25°C for 5 min by absorbance at 590 nm as specified by the manufacturer.
(§1) The IC50 values were determined as described previously. All experiments were repeated a minimum of three times to determine the reproducibility of the results. All error bars represent standard error of the mean (SEM). Statistical analysis of differences between samples was performed using the Student’s t-test. A P value of < 0.05 was considered statistically significant.

[2] = target: T2, PDE5 (Homo sapiens, UniProt O76074); assay: IMAP fluorescence polarization PDE assay, recombinant PDE5; format: biochemical; settings: recombinant enzyme
T2 construct: purchased BPS Biosciences
Procedure: (§2) Recombinant PDE isozymes were purchased from BPS Biosciences. The PDE10 antibody was purchased from GeneTex, while the PDE5 antibody was purchased from Cell Signaling Technologies. Non-targeting control siRNA and PDE10 specific siRNAs were purchased from Qiagen. RNAiMAX transfection reagent was purchased from Invitrogen. DMSO was used as vehicle for all compounds unless otherwise noted. All other reagents were purchased from Sigma.
(§3) PDE activity was measured using the IMAP fluorescence polarization (FP) PDE assay (Molecular Devices) in which binding of hydrolyzed fluorescent cyclic nucleotide substrate to the IMAP reagent increases FP as described previously.
as §1

[3] = target: T3, PDE10 (Homo sapiens, UniProt Q9Y233); assay: IMAP fluorescence polarization PDE assay, recombinant PDE10; format: biochemical; settings: recombinant enzyme
T3 construct: purchased BPS Biosciences
T3 sequence (Q9Y233 267-1055): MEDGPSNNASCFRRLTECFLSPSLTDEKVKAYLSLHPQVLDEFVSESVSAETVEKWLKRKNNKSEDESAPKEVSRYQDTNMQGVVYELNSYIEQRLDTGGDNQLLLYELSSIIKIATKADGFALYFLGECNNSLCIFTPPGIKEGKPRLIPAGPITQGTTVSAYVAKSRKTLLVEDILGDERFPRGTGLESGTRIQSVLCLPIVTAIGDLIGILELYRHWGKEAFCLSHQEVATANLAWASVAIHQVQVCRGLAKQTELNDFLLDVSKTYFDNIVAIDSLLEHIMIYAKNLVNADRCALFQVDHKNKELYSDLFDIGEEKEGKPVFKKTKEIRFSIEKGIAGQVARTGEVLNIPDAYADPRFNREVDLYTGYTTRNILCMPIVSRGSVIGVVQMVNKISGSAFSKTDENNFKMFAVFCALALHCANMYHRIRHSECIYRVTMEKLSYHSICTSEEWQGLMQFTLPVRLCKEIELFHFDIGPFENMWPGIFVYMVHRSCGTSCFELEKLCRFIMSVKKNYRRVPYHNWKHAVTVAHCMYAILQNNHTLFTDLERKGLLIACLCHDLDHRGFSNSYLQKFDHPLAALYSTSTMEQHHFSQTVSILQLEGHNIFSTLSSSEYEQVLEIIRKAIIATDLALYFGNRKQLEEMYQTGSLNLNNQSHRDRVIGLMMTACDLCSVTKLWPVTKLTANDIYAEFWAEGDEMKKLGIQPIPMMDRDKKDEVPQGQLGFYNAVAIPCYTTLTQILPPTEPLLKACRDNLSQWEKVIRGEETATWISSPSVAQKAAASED
Procedure: as §2, §3, §1

[4] = test system: HT29 colon tumor cells; assay: Growth assay (Cell Titer Glo), HT29; format: cell-based; settings: Homo sapiens, HT-29; 72 hours of treatment; read-out: HT29 growth IC50
Procedure: (§4) Human colon tumor cell lines, HCT116, HT29, SW480 and Caco-2 were obtained from the American Type Culture Collection (ATCC) and grown under standard cell culture conditions in RPMI 1640 medium containing 5% serum at 37°C in a humidified atmosphere with 5% CO2. The human colonocyte line, NCM460, that is derived from normal human colon mucosa was obtained from INCELL and grown in INCELL’s enriched M3:10 medium with 10% serum as recommended by supplier. All cell lines were expanded upon delivery, and numerous aliquots of low passage cells were preserved in liquid N2. Cells were passaged no longer than 2 months. Tumor cell lines obtained from ATCC were characterized by STR profiling as performed by ATCC. The NCM460 line was characterized by INCELL as described previously (e.g. tumorigenicity testing). No additional re-authentication of the cell lines was performed except for experimental reasons (e.g. confirmation of cell doubling time, morphology, sensitivity to SS, PDE5/10 expression levels, etc).
(§5) Cells were plated in 96-well microtiter plates at a density of 5,000 cells per well. For drug treatment, cells were treated with compound or vehicle, and incubated at 37°C for 72 hours. All growth assays were performed in 5% serum unless otherwise noted. Deionized water was used as vehicle control for papaverine. For siRNA assays, cells were transfected with siRNA under the same condition described above. The effect of treatment on cell growth was measured using the Cell Titer Glo Assay as specified by the manufacturer (Promega).
as §1

[5] = test system: NCM460 normal colonocytes; assay: Growth assay (Cell Titer Glo), NCM460 normal colonocytes; format: cell-based, human
Procedure: as §4, §5, §1

[6] = test system: PKG/PKA activity (VASP Ser239/Ser157) in Caco-2 colon tumor cells; assay: Western blotting of VASP phosphorylation, Caco-2; format: cell-based, human
Procedure: (§6) Western blotting was performed as described previously. Cells were treated with ADT-094 or vehicle for 8 hours before cell lysates were collected.

[7] = test system: β-catenin signaling in Caco-2 colon tumor cells; assay: Western blotting of β-catenin, cyclin D1, survivin, Caco-2; format: cell-based, human
Procedure: as §6

[8] = test system: β-catenin/TCF transcriptional activity in HCT116 cells; format: cell-based; settings: HCT116, 24 hours of treatment
Procedure: (§7) Cells were seeded at a density of 5 × 10^4 cells per well in 24-well tissue culture plates and incubated overnight at 37°C. Cells were transiently transfected with 0.1 μg TOP-FLASH constructs (Millipore) and 0.1 μg β-galactosidase-expressing vector (Promega). After 24 hours of transfection, cells were treated with ADT-094 or vehicle for 24 hours. At the end of treatment, cells were lysed and both luciferase and β-galactosidase activities were measured using kits from Promega. All luciferase activity was normalized to β-galactosidase activity.

[9] = test system: β-catenin/TCF transcriptional activity in SW480 cells; assay: TOP-FLASH luciferase reporter assay, SW480; format: cell-based, human; settings: SW480, 24 hours of treatment
Procedure: as §7

## COc1ccc2c(c1)C(CC(=O)NCc1ccco1)=C(C)/C2=C/c1cc(OC)c(OC)c(OC)c1 [ADT-094, (Z)-N-(furan-2-ylmethyl)-2-(5-methoxy-2-methyl-1-(3,4,5-trimethoxybenzylidene)-1H-inden-3-yl) acetamide]
[1]; Figure 3A
  IC50: 145000 nM
[1]; in words
  COX-2 inhibitory activity: essentially lacks
[2]
  IC50: 2400 nM
[3]
  IC50: 500 nM
[4]
  IC50: 100 nM
[5]; Homo sapiens, NCM460, Figure 3C, luciferase-based ATP assay, 72 hours, read-out: NCM460 growth IC50
  IC50: > 10000 nM
[5]; in words
  growth of normal colonocytes (tumor cell selectivity): essentially refractory to treatment
[6]; Caco-2
  VASP phosphorylation at Ser239: Dose-dependent increases
[6]; Caco-2, at concentrations that cause PKG activation
  PKA activity (VASP phosphorylation at Ser157): did not affect PKA activity
[7]
  levels of cyclin D1 and survivin: also decreased
  β-catenin levels: dose-dependent decrease
[8]
  β-catenin/TCF transcriptional activity: significantly inhibited
[9]
  β-catenin/TCF transcriptional activity: significantly inhibited
